According to article doi:10.1101/2025.03.13.642871v2 (biorxiv, 2026):

Legend:
[1] = target: T1, p300 bromodomain (Homo sapiens, UniProt Q09472); assay: SPR, single-cycle kinetics, NTA chip; format: binding
T1 sequence (Q09472 1049-1156 limits assumed): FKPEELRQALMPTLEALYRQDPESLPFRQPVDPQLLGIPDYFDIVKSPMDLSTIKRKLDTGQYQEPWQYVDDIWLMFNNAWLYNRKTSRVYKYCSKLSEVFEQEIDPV

[2] = target: CREBBP (Homo sapiens, UniProt Q92793); assay: cell-free H3K27 acetylation, immunoblot; format: biochemical
[3] = target: p300 (Homo sapiens, UniProt Q09472); assay: cell-free H3K27 acetylation, immunoblot; format: biochemical
p300, sequence (Q09472 2-2414): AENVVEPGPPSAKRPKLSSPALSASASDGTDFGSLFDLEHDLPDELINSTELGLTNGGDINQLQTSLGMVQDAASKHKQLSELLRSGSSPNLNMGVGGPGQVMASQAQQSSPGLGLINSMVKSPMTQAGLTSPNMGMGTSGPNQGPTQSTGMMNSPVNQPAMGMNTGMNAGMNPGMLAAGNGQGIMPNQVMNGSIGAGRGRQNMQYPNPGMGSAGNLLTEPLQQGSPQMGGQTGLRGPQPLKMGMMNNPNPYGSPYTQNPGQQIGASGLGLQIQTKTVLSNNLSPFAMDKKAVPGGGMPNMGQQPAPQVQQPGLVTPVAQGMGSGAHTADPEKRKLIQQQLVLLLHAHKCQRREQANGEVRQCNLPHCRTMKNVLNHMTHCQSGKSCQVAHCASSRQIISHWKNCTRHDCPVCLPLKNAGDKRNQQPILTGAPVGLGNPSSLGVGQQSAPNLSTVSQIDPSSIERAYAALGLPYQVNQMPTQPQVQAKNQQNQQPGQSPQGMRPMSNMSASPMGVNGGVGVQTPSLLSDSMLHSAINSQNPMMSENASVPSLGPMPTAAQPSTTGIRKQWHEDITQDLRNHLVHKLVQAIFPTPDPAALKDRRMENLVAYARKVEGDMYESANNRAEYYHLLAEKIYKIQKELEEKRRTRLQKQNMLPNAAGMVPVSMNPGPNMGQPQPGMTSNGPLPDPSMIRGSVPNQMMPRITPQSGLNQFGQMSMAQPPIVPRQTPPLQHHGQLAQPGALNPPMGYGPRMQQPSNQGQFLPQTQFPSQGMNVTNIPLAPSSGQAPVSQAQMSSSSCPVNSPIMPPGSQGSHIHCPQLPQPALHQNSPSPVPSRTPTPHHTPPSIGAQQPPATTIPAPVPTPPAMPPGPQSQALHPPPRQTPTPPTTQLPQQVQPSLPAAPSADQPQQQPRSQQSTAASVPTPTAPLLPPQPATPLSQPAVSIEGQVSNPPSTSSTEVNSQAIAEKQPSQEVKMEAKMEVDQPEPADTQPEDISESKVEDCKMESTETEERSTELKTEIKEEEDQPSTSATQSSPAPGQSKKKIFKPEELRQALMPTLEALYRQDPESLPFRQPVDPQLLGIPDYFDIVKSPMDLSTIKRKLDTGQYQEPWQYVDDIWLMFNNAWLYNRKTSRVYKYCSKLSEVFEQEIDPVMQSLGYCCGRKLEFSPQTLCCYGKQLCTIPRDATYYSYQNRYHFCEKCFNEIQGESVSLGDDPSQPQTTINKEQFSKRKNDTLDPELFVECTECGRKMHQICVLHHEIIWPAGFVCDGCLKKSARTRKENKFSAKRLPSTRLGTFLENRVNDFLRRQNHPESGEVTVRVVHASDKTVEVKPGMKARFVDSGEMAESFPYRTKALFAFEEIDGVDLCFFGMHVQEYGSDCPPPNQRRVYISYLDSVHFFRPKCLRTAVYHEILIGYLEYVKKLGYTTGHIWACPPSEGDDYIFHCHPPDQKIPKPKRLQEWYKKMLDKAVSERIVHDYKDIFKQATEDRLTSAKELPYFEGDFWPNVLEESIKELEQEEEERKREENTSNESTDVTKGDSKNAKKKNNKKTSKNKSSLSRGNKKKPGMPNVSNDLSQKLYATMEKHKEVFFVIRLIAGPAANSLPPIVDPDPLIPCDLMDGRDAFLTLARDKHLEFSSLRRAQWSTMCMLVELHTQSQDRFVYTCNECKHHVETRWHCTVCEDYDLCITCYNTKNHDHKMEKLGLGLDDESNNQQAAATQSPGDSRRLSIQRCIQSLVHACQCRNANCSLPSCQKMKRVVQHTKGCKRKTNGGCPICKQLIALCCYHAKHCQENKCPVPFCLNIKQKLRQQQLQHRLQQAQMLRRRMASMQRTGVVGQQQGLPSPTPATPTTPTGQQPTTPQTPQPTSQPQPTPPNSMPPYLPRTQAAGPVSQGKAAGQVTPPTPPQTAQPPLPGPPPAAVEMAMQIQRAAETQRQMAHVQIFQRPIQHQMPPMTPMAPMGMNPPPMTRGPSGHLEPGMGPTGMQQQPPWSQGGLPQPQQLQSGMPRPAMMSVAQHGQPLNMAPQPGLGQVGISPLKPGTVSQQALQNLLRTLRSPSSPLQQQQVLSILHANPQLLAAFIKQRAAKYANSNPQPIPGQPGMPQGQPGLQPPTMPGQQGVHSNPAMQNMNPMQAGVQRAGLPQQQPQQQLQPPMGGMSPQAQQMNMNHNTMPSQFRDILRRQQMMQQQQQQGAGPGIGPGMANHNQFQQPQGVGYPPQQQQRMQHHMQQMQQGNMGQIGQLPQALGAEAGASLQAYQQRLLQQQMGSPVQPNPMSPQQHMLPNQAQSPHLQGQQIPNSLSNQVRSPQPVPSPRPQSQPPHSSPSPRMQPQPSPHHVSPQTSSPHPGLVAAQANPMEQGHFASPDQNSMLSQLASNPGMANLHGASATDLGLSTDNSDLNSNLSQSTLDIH

CREBBP, sequence (Q92793 2-2442): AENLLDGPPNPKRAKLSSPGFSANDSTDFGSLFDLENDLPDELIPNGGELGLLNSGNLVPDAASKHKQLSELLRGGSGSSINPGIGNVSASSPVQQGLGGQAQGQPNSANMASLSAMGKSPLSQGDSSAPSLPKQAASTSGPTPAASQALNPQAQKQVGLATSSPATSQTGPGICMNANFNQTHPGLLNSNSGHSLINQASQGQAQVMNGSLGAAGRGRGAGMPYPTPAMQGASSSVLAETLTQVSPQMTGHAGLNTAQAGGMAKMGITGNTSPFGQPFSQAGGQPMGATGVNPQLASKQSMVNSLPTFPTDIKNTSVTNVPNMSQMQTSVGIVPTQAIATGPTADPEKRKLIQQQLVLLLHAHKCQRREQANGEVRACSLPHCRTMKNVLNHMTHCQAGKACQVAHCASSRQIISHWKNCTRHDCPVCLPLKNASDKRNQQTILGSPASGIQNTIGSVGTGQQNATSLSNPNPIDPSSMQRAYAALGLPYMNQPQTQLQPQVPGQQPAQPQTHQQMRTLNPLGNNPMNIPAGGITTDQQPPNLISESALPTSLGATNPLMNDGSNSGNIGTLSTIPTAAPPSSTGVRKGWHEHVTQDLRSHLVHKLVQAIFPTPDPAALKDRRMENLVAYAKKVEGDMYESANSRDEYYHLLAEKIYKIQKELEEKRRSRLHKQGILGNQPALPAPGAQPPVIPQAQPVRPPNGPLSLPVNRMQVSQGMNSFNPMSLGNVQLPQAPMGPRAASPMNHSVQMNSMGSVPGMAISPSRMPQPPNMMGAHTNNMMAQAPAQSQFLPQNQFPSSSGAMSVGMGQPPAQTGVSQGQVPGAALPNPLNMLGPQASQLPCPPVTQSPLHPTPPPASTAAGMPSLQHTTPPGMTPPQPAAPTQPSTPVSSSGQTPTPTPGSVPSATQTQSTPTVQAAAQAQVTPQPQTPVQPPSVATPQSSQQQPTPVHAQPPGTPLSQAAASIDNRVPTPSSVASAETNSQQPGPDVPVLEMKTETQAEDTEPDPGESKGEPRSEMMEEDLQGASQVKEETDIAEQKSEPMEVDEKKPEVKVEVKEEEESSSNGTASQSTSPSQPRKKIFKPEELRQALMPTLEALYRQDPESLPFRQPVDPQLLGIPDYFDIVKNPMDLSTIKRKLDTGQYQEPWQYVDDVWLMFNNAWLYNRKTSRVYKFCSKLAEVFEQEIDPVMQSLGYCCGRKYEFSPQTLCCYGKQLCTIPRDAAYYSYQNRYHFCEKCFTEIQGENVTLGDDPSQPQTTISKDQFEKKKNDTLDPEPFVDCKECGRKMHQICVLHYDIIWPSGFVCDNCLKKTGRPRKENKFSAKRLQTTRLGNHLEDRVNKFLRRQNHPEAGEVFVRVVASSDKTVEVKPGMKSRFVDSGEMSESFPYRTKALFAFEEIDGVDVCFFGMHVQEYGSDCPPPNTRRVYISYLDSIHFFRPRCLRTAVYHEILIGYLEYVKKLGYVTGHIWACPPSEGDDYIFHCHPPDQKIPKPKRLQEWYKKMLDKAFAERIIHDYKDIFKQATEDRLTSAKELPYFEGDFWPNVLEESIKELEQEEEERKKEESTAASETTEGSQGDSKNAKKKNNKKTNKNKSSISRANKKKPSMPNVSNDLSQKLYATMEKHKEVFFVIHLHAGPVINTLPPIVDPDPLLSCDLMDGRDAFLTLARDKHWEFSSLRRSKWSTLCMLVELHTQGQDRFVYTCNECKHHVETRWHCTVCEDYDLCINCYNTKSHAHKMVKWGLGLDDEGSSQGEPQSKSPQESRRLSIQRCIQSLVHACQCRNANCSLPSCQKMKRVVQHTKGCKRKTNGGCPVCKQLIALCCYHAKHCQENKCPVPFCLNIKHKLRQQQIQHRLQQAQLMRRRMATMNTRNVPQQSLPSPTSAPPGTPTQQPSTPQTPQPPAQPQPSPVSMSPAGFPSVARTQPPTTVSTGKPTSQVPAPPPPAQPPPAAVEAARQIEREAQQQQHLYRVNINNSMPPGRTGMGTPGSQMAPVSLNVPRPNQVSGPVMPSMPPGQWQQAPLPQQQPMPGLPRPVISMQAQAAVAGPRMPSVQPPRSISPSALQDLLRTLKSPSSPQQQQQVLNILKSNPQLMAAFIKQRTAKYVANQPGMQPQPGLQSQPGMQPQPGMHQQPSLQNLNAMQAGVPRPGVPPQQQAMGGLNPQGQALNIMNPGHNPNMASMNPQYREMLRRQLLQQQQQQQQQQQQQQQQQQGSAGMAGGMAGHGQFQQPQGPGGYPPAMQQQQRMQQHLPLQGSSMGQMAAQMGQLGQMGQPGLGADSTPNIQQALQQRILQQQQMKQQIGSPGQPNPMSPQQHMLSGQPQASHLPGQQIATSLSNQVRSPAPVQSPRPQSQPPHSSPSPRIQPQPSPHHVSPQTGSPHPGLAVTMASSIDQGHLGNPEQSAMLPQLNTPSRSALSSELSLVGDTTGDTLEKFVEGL

Kd [1]: 4.42 µM
EC50 [2]: 15.8 µM
EC50 [3]: 4.32 µM
SMILES: CCOc1cccc(OCCN(C)C)c1C(=O)Nc1ccc(Cl)c(C(F)(F)F)c1 [YF2]
